Laboratory results as given in publication PMC11344848, “Proximity-driven site-specific cyclization of phage-displayed peptides” (Nature Communications, 2024).

Experiment: N-terminal-to-internal Cys bridging with heterobifunctional cyclopropenone-chloroacetamide linker (CCA): DTT reduction, cyclopropenone condensation with N-terminal Cys 1,2-aminothiol (1,4-thiazepan-5-one), then proximity-driven intramolecular thioether formation between internal Cys thiol and chloroacetamide
Conditions: the molecule shown is the open-chain precursor, PBS pH 7.4, 5% DMSO, 0.01 mM, 25.0 °C, 2.0 h, 2 steps

With `N=C(N)NCCC[C@H](NC(=O)[C@@H]1CCCN1C(=O)[C@H](CS)NC(=O)[C@H](CC(N)=O)NC(=O)[C@H](CCC(N)=O)NC(=O)[C@H](Cc1ccccc1)NC(=O)[C@H](Cc1ccc(O)cc1)NC(=O)[C@@H]1CSCC(CCCC(=O)N2CCN(C(=O)CCl)CC2)C(=O)N1)C(=O)NCC(N)=O` (stereo partly drawn) [H-CYFQNCPRG-NH2] the ring closure, conversion by HPLC (31-membered ring) was > 95%.

H-CGGSGGC-[WLAAA-D1/D2 pIII fusion] gave a ring closure, conversion by HPLC (34-membered ring) of 100%.

H-CGSGGSGC-[AAA-D1/D2 pIII fusion] showed a ring closure, conversion by HPLC (37-membered ring) of 100%.

With H-CPEGYILDDGFCTDIDE-[D1/D2 pIII fusion] the ring closure, conversion by HPLC (49-membered ring) was 100%.

Compound H-CQPHPGQTC-[AAA-D1/D2 pIII fusion] has a ring closure, conversion by HPLC (40-membered ring) of 100%.

With H-CYKLAEGDKYYIC-[D1/D2 pIII fusion] the ring closure, conversion by HPLC (52-membered ring) was 100%.
